Read-outs that look alike come from different tables or passages of the source.
Assays:
[1] = test system: intracellular T. cruzi amastigotes; assay: Primary high-content intracellular T. cruzi amastigote assay; format: cell-based, Trypanosoma cruzi (Silvio X10/7 A1) in Vero cells; settings: for EC50: Trypanosoma cruzi, read-out: pEC50 (cruzi) (converted)
Protocol: (§1) The compounds tested were obtained from the NIH (Clinical Collection) and from SelleckChem (FDA-approved drug library). Compounds were dispensed into black 384-well assay plates (Corning) by acoustic dispensing (LabCyte ECHO). […] Potencies are reported as pEC50 (-LOG(EC50[M])).
(§2) For the primary intracellular assay the infection conditions were chosen so that no trypomastigote egress occurs during the compound incubation time. First, Vero cells were infected overnight with tissue culture derived T. cruzi trypomastigotes in T225 tissue culture flasks (MOI 5). Next, any remaining free trypomastigotes were washed away with serum free MEM and the infected Vero cells were harvested by trypsinisation. The infected Vero cells were then plated into 384-well plates containing the compounds to be tested, at 4000 cells per well in MEM media with 1% FCS. […] The plates were imaged on a Perkin Elmer Operetta high-content imaging system using a 20x objective. Images were analysed using the Columbus system (Perkin Elmer). The algorithm for the primary assay first identified the Vero nuclei followed by demarcation of the cytoplasm and identification of intracellular amastigotes. This algorithm reported mean number of parasites per Vero cell and total number of Vero cells. Data analysis was as described in [22]. […] Hits from the primary screen were selected based on the following criteria: T. cruzi activity (percent inhibition) > (median T. cruzi percent inhibition + 3 x robust Standard Deviation) and Vero activity (percent inhibition) < (median percent Vero inhibition + 3 x robust Standard Deviation).

Vero cells = assay: Host cell toxicity read-out of the primary assay (Vero cell count); format: cell-based; settings: for EC50: Chlorocebus sabaeus, Vero, read-out: pEC50 (Vero) (converted)
Protocol: as §1, §2

[2] = hits of the bio-actives screen, 10-point dose-response, top concentration 50μM, 72h

Nc1ncnc2c1ncn2[C@@H]1O[C@H](CO)C[C@H]1O [3'-deoxydenosine]
pEC50 (cruzi) [1, 2]: 5.6 | pEC50 (Vero) (Vero cells; [2]): 4.3

CCCCC(=O)O[C@H]1CC[C@H]2[C@@H]3CCc4cc(O)ccc4[C@H]3CC[C@]12C [17β-estradiol 17-valerate]
pEC50 (cruzi) [1, 2]: 5.0 | pEC50 (Vero) (Vero cells; [2]): 4.9

CC(C)(C)C(=O)OCOP(=O)(COCCn1cnc2c(N)ncnc21)OCOC(=O)C(C)(C)C [Adefovir Dipivoxil]
EC50 [1, 2]: 6.31 µM | EC50 (Vero cells; [2]): 15.8 µM

CCC(C)(C)c1ccc(CC(C)CN2C[C@@H](C)O[C@@H](C)C2)cc1 (stereo partly drawn) [Amorolfine]
EC50 [1, 2]: 10 µM | EC50 (Vero cells; [2]): 15.8 µM

COC(=O)C1=C(C)NC(C)=C(C(=O)OC2CCCN(Cc3ccccc3)C2)C1c1cccc([N+](=O)[O-])c1 (stereo not drawn) [Benidipine]
EC50 [1, 2]: 2 µM | EC50 (Vero cells; [2]): 10 µM

CC(COc1ccccc1Cc1ccccc1)N1CCCCC1 (stereo not drawn) [Benproperine]
EC50 [1, 2]: 1.26 µM | EC50 (Vero cells; [2]): 15.8 µM

CN1CCN(c2nc3cc(C(F)(F)F)ccc3n3cccc23)CC1.O=C(O)/C=C\C(=O)O.O=C(O)/C=C\C(=O)O [CGS 12066B]
pEC50 (cruzi) [1, 2]: 5.5 | pEC50 (Vero) (Vero cells; [2]): 4.8

CCOc1nc2cccc(C(=O)OC(C)OC(=O)OC3CCCCC3)c2n1Cc1ccc(-c2ccccc2-c2nnn[nH]2)cc1 (stereo not drawn) [Candesartan cilexetil]
EC50 [1, 2]: 6.31 µM | EC50 (Vero cells; [2]): 12.6 µM

COC(=O)C1=C(C)NC(C)=C(C(=O)OCCN(C)Cc2ccccc2)C1c1cccc([N+](=O)[O-])c1 (stereo not drawn) [Cardene]
EC50 [1, 2]: 3.98 µM | EC50 (Vero cells; [2]): 15.8 µM

COc1ccccc1OCCNCC(O)COc1cccc2[nH]c3ccccc3c12 (stereo not drawn) [Carvedilol]
EC50 [1, 2]: 5.01 µM | EC50 (Vero cells; [2]): 15.8 µM

CN(C)CCCN1c2ccccc2Sc2ccc(Cl)cc21 [Chlorpromazine]
EC50 [1, 2]: 3.98 µM | EC50 (Vero cells; [2]): 10 µM

CN(C)CC/C=C1/c2ccccc2Sc2ccc(Cl)cc21 [Chlorprothixene]
EC50 [1, 2]: 3.16 µM | EC50 (Vero cells; [2]): 15.8 µM

COCCOC(=O)C1=C(C)NC(C)=C(C(=O)OC/C=C/c2ccccc2)C1c1cccc([N+](=O)[O-])c1 (stereo not drawn) [Cilnidipine]
EC50 [1, 2]: 1.26 µM | EC50 (Vero cells; [2]): 15.8 µM

C#C[C@]1(O)CC[C@H]2[C@@H]3CCC4=Cc5oncc5C[C@]4(C)[C@H]3CC[C@@]21C [Danazol]
EC50 [1, 2]: 3.98 µM | EC50 (Vero cells; [2]): 15.8 µM

CN(C)[C@@H](CCOc1cccc2ccccc12)c1ccccc1 [Dapoxetine]
EC50 [1, 2]: 5.01 µM | EC50 (Vero cells; [2]): 15.8 µM

CCOC(=O)C1(c2ccccc2)CCN(CCC(C#N)(c2ccccc2)c2ccccc2)CC1 [Diphenoxylate]
EC50 ([1]; 72 h): 2.51 µM | EC50 (Vero cells; 72 h): 15.8 µM

COc1cc2nc(N3CCN(C(=O)C4COc5ccccc5O4)CC3)nc(N)c2cc1OC (stereo not drawn) [Doxazosin]
EC50 [1, 2]: 5.01 µM | EC50 (Vero cells; [2]): 15.8 µM

CNCC[C@H](Oc1cccc2ccccc12)c1cccs1 [Duloxetine]
EC50 ([1]; 72 h): 6.31 µM | EC50 (Vero cells; 72 h): 15.8 µM

C[C@]12C=CC(=O)N[C@@H]1CC[C@@H]1[C@@H]2CC[C@]2(C)[C@@H](C(=O)Nc3cc(C(F)(F)F)ccc3C(F)(F)F)CC[C@@H]12 [Dutasteride]
EC50 ([1]; 72 h): 15.8 µM | EC50 (Vero cells; 72 h): 15.8 µM

C=C1[C@H](CO)[C@@H](O)C[C@@H]1n1cnc2c(=O)[nH]c(N)nc21 [Entecavir]
EC50 [1, 2]: 3.98 µM | EC50 (Vero cells; [2]): 15.8 µM

CCOC(=O)c1cncn1[C@H](C)c1ccccc1 [Etomidate]
EC50 ([1]; 72 h): 5.01 µM | EC50 (Vero cells; 72 h): 50.1 µM

CCOC(=O)C1=C(C)NC(C)=C(C(=O)OC)C1c1cccc(Cl)c1Cl (stereo not drawn) [Felodipine]
EC50 [1, 2]: 5.01 µM | EC50 (Vero cells; [2]): 15.8 µM

C[C@]12CC[C@@H]3c4ccc(O)cc4C[C@@H](CCCCCCCCC[S+]([O-])CCCC(F)(F)C(F)(F)F)[C@H]3[C@@H]1CC[C@@H]2O (stereo partly drawn) [Fulvestrant]
EC50 [1, 2]: 5.01 µM | EC50 (Vero cells; [2]): 15.8 µM

C=CCc1ccc(O)c(-c2ccc(O)c(CC=C)c2)c1 [Honokiol]
EC50 [1, 2]: 2 µM | EC50 (Vero cells; [2]): 7.94 µM

CNC1CC(c2ccc(Cl)c(Cl)c2)c2ccccc21 (stereo not drawn) [Indatraline]
EC50 ([1]; 72 h): 5.01 µM | EC50 (Vero cells; 72 h): 12.6 µM

COc1ccc(CN2CCN(C(c3ccc(F)cc3)c3ccc(F)cc3)CC2)c(OC)c1OC [Lomerizine]
EC50 [1, 2]: 3.98 µM | EC50 (Vero cells; [2]): 15.8 µM

Cc1ccc(NC(=O)c2ccc(CN3CCN(C)CC3)cc2)cc1Nc1nc(-c2cccnc2)cs1 [Masitinib]
EC50 [1, 2]: 2 µM | EC50 (Vero cells; [2]): 7.94 µM

Cc1cccc(CN2CCN(C(c3ccccc3)c3ccc(Cl)cc3)CC2)c1 (stereo not drawn) [Meclizine]
EC50 [1, 2]: 5.01 µM | EC50 (Vero cells; [2]): 20 µM

CCCCC/C=C\C/C=C\C/C=C\C/C=C\CCCC(=O)Nc1ccc(O)cc1 [N-arachidonoylaminophenol]
pEC50 (cruzi) [1, 2]: 5.7 | pEC50 (Vero) (Vero cells; [2]): 4.8

COCCOC(=O)C1=C(C)NC(C)=C(C(=O)OC(C)C)C1c1cccc([N+](=O)[O-])c1 (stereo not drawn) [Nimodipine]
EC50 [1, 2]: 2 µM | EC50 (Vero cells; [2]): 15.8 µM

CCOC(=O)C1=C(C)NC(C)=C(C(=O)OC)C1c1cccc([N+](=O)[O-])c1 (stereo not drawn) [Nitrendipine]
EC50 [1, 2]: 3.98 µM | EC50 (Vero cells; [2]): 15.8 µM

NC(=O)N/N=C/c1ccc([N+](=O)[O-])o1 [Nitrofurazone]
EC50 [1, 2]: 1 µM | EC50 (Vero cells; [2]): 15.8 µM

Fc1ccc([C@@H]2CCNC[C@H]2COc2ccc3c(c2)OCO3)cc1 [Paroxetine]
EC50 [1, 2]: 5.01 µM | EC50 (Vero cells; [2]): 12.6 µM

O=C1[C@H]2CCCC[C@H]2C(=O)N1CCCCN1CCN(c2nsc3ccccc23)CC1 [Perospirone]
EC50 [1, 2]: 6.31 µM | EC50 (Vero cells; [2]): 15.8 µM

c1ccc2c(c1)Nc1ccccc1S2 [Phenothiazine]
EC50 ([1]; 72 h): 2.51 µM | EC50 (Vero cells; 72 h): 15.8 µM

COC(=O)[C@H]1[C@H]2C[C@@H]3c4[nH]c5cc(OC)ccc5c4CCN3C[C@H]2C[C@@H](OC(=O)c2cc(OC)c(OC)c(OC)c2)[C@@H]1OC [Reserpine]
EC50 [1, 2]: 3.98 µM | EC50 (Vero cells; [2]): 50.1 µM

CO[C@H]1/C=C/O[C@@]2(C)Oc3c(C)c(O)c4c(O)c(c(/C=N/N5CCN(C6CCCC6)CC5)c(O)c4c3C2=O)NC(=O)/C(C)=C\C=C\[C@H](C)[C@H](O)[C@@H](C)[C@@H](O)[C@@H](C)[C@H](OC(C)=O)[C@@H]1C [Rifapentine]
EC50 [1, 2]: 10 µM | EC50 (Vero cells; [2]): 15.8 µM

C[C@@H]1CN(CCCn2c3ccccc3c3ccccc32)C[C@H](C)N1 [Rimcazole]
EC50 [1, 2]: 5.01 µM | EC50 (Vero cells; [2]): 10 µM

C=C(C)CN1CC[C@]23c4c5ccc(O)c4O[C@H]2c2[nH]c4ccccc4c2C[C@@]3(O)C1C5.Cl.O [SDM25N]
pEC50 (cruzi) [1, 2]: 5.2 | pEC50 (Vero) (Vero cells; [2]): 4.8

C[C@]12Cc3c[nH]nc3C[C@@H]1CC[C@@H]1[C@@H]2CC[C@@]2(C)[C@H]1CC[C@]2(C)O [Stanozolol]
EC50 ([1]; 72 h): 5.01 µM | EC50 (Vero cells; 72 h): 15.8 µM

CN1CCN(CC/C=C2/c3ccccc3Sc3ccc(S(=O)(=O)N(C)C)cc32)CC1 [Thiothixene]
EC50 [1, 2]: 5.01 µM | EC50 (Vero cells; [2]): 7.94 µM

Oc1cc(Cl)ccc1Oc1ccc(Cl)cc1Cl [Triclosan]
EC50 ([1]; 72 h): 7.94 µM | EC50 (Vero cells; 72 h): 10 µM

— PMC4833300, “Identification of Trypanocidal Activity for Known Clinical Compounds Using a New Trypanosoma cruzi Hit-Discovery Screening Cascade” (PLoS Neglected Tropical Diseases, 2016)
